From ChEMBL document CHEMBL1133139, “Stereochemistry of halopyridyl and thiazolyl thiourea compounds is a major determinant of their potency as nonnucleoside inhibitors of HIV-1 reverse transcriptase” (Bioorg Med Chem Lett, 2000)

Experiments:
[1] = target: T1, Human immunodeficiency virus type 1 reverse transcriptase (Human immunodeficiency virus 1, UniProt Q72547); assay: Binding affinity against HIV reverse transcriptase (Estimated Ki)
[2] = Inhibit the replication of the HIV-1 strain […] in human peripheral blood mononuclear cell; format: functional
H9 = assay: Inhibitory activity against multidrug resistant HIV-1 strain RT-MDR; format: functional, cell-based; details: Homo sapiens
[3] = tested on: Human immunodeficiency virus 1; assay: Inhibitory activity against NNI-resistant HIV-1 strain A17 with Y181C mutation; format: functional, organism-based
[4] = tested on: Human immunodeficiency virus 1; assay: Inhibitory activity against NNI-resistant HIV-1 strain A17 with Y181C,K103N mutation; format: functional, organism-based
[5] = target: T1, Human immunodeficiency virus type 1 reverse transcriptase; assay: Compound was evaluated for its inhibitory activity against recombinant HIV-1 Reverse transcriptase using cell free RT inhibition assay
[6] = Compound was evaluated for its ability to inhibit the replication of the HIV-1 strain […] in human peripheral blood mononuclear cells; format: functional

Row | IC50 [5] | SMILES | Ki [1] | IC50 [2] | IC50 (H9) | IC50 [3] | IC50 [4] | IC50 [6]
1 | > 100000 nM | C[C@H](/N=C(\S)Nc1ccc(Cl)cn1)C1CCCCC1 | > 100000 nM | > 1000 nM |  |  |  | 
2 |  | Fc1ccccc1CCNC(=S)Nc1ccc(Br)cn1 | 600 nM | < 1 nM | 5 nM | 200 nM | 41000 nM | 
3 | > 100000 nM | C[C@H](/N=C(\S)Nc1ccc(Cl)cn1)c1ccccc1 |  |  |  |  |  | 
4 | > 100000 nM | C[C@H](/N=C(\S)Nc1ccc(Br)cn1)c1ccccc1 |  | > 1000 nM |  |  |  | 
5 |  | S=C(NCCc1ccccn1)Nc1ccc(Br)cn1 [TROVIRDINE] | 600 nM | 7 nM | 20 nM | 500 nM | > 100000 nM | 
6 | > 100000 nM | C[C@@H](/N=C(\S)Nc1ccccn1)C1CCCCC1 | > 100000 nM | > 1000 nM |  |  |  | 
7 | > 100000 nM | C[C@H](/N=C(\S)Nc1ccc(Br)cn1)C1CCCCC1 | > 100000 nM | > 1000 nM |  |  |  | 
8 | > 100000 nM | C[C@H](NC(=S)Nc1ccccn1)C1CCCCC1 | > 100000 nM | > 1000 nM |  |  |  | 
9 |  | Cc1ccnc2c1NC(=O)c1cccnc1N2C1CC1 [NEVIRAPINE] |  | 34 nM | 5000 nM | > 100000 nM | > 100000 nM | 
10 |  | CC(C)Nc1cccnc1N1CCN(C(=O)c2cc3cc(NS(C)(=O)=O)ccc3[nH]2)CC1 [DELAVIRDINE] |  | 9 nM | 400 nM | 50000 nM | > 100000 nM | 
11 | > 100000 nM | C[C@H](NC(=S)Nc1nccs1)C1CCCCC1 | > 100000 nM | > 1000 nM |  |  |  | 

Row | SMILES | IC50 [5] | Ki [1] | IC50 [2] | IC50 (H9) | IC50 [3] | IC50 [4] | IC50 [6]
12 | C[C@@H](/N=C(\S)Nc1nccs1)C1CCCCC1 | 13000 nM | 12000 nM | 1 nM | 5600 nM | 900 nM | 5800 nM | 
13 | C[C@@H](NC(=S)Nc1ccc(Br)cn1)c1ccccc1 | 1600 nM |  | 10 nM | 5 nM | 10 nM | 2700 nM | 
14 | C[C@@H](/N=C(\S)Nc1ccc(Cl)cn1)C1CCCCC1 | 1400 nM | 1200 nM | 25 nM | 60 nM | 70 nM | 8200 nM | 
15 | C[C@@H](NC(=S)Nc1ccc(Cl)cn1)c1ccccc1 | 1200 nM |  | 10 nM | 10 nM | 200 nM | 10200 nM | 
16 | C[C@@H](NC(=S)Nc1ccc(Br)cn1)C1CCCCC1 | 1200 nM | 1100 nM |  | 200 nM | 400 nM | 10000 nM | 1 nM
